Experiments:
[1] = Physical stability test of aqueous metronidazole compositions (crystal formation or precipitation); type: physicochemical; conditions: for Concentration required to obtain a stable aqueous solution of 1.0% metronidazole: as the only solubility enhancing agent
Experimental: The solubility enhancing effect of the combination of urea and hydroxyalkyl urea in increasing the solubility of metronidazole in the aqueous compositions is evaluated by physical stability of the prepared compositions.
Therefore, the formulations are subject to a physical stability test. The protocol for the stability test is as follows: metronidazole and the solubility enhancing agents are combined with water either at room temperature or elevated temperature while stirring until dissolved. The solutions are permitted to cool to room temperature. Customary auxiliaries and additives may be added to the aqueous solutions containing solubilized metronidazole and solubility enhancing agents. The solutions may be gelled by using the suitable gelling agents. The compositions both in gel or solution form are then packaged in clear glass vials and sealed. The vials are kept at room temperature for 24 hours and monitored for crystal formation or precipitation. After 24 hours, the vials are placed in a refrigerator maintained at a temperature of about 4° C. for 7 days. After 7 days, the vials are removed from the refrigerator. Evidence of crystal formation or precipitation in the compositions is examined.
Each formulation was prepared by combining urea and metronidazole in water (q.s 100%). The mixture was kept at a temperature of about 45° C. while stirring until dissolved. The solutions were permitted to cool to room temperature, packaged and sealed in glass vials. The stability tests described in Example 1 were performed and the test results were recorded.
Each formulation was prepared by combining N-2-hydroxyethyl urea and metronidazole in water (q.s 100%). The mixture was kept at a temperature of about 45°C. while stirring until dissolved. The solutions were permitted to cool to room temperature, packaged and sealed in glass vials. The stability tests described in Example 1 were performed and the test results were recorded.
Each formulation was prepared by combining N-2-hydroxyethyl urea, urea, and metronidazole in water (q.s 100%). The mixture was kept either at room temperature or at a temperature of about 45° C. while stirring until dissolved. The solutions were permitted to cool to room temperature, packaged and sealed in glass vials. The stability tests described in Example 1 were performed and the test results were recorded. […]

[2] = at 25 °C; cited from earlier work

With `Cc1ncc([N+](=O)[O-])n1CCO` [Metronidazole, 1-(2-hydroxyethyl)-2-methyl-5-nitroimidazole] the “Results from stability test” value ([1]; 1.0% N-2-hydroxyethyl urea, 7.0% urea, 1.0% metronidazole in water, 7 days at about 4 °C) was “Crystals”, the “Results from stability test” value ([1]; 1.0% N-2-hydroxyethyl urea, 8.0% urea, 1.0% metronidazole in water, 7 days at about 4 °C) was “Clear” and the “Results from stability test” value ([1]; 1.0% N-2-hydroxyethyl urea, 9.0% urea, 1.0% metronidazole in water, 7 days at about 4 °C) was “Clear”. For the same compound, the “Results from stability test” value ([1]; 5.0% N-2-hydroxyethyl urea, 2.0% urea, 1.0% metronidazole in water, 7 days at about 4 °C) was “Clear”, the “Results from stability test” value ([1]; 5.0% N-2-hydroxyethyl urea, 2.0% urea, 1.0% metronidazole in water, 7 days at about 4 °C, listed as metronidazole) was “stable” and the “Results from stability test” value ([1]; 5.0% N-2-hydroxyethyl urea, 3.0% urea, 1.0% metronidazole in water, 7 days at about 4 °C) was “Clear”. For the same compound, the “Results from stability test” value ([1]; 5.0% N-2-hydroxyethyl urea, 4.0% urea, 1.0% metronidazole in water, 7 days at about 4 °C) was “Clear”, the “Results from stability test” value ([1]; 5.0% N-2-hydroxyethyl urea, 5.0% urea, 1.0% metronidazole in water, 7 days at about 4 °C) was “Clear” and the “Results from stability test” value ([1]; 7% urea, 1.0% metronidazole in water, 24 h room temperature then 7 days at about 4 °C) was “Crystals formed”. The “Results from stability test” value ([1]; 8.0% N-2-hydroxyethyl urea, 1.0% urea, 1.0% metronidazole in water, 7 days at about 4 °C) was “Crystals”, the “Results from stability test” value ([1]; 8.0% N-2-hydroxyethyl urea, 8.0% urea, 1.2% metronidazole in water, 7 days at about 4 °C) was “Clear” and the “Results from stability test” value ([1]; 8% urea, 1.0% metronidazole in water, 24 h room temperature then 7 days at about 4 °C) was “Crystals formed”. The “Results from stability test” value ([1]; 9.0% N-2-hydroxyethyl urea, 1.0% urea, 1.0% metronidazole in water, 7 days at about 4 °C) was “Crystals”, the “Results from stability test” value ([1]; 9% urea, 1.0% metronidazole in water, 24 h room temperature then 7 days at about 4 °C) was “Crystals formed” and the “Results from stability test” value ([1]; 10.0% N-2-hydroxyethyl urea, 1.0% urea, 1.0% metronidazole in water, 7 days at about 4 °C) was “Clear”. The “Results from stability test” value ([1]; 10% urea, 1.0% metronidazole in water, 24 h room temperature then 7 days at about 4 °C) was “Clear”, the “Results from stability test” value ([1]; 13% N-2-hydroxyethyl urea, 1.0% metronidazole in water, 24 h room temperature then 7 days at about 4 °C) was “Crystals formed” and the “Results from stability test” value ([1]; 14% N-2-hydroxyethyl urea, 1.0% metronidazole in water, 24 h room temperature then 7 days at about 4 °C) was “Crystals formed”. The “Results from stability test” value ([1]; 15% N-2-hydroxyethyl urea, 1.0% metronidazole in water, 24 h room temperature then 7 days at about 4 °C) was “Crystals formed” and the “Results from stability test” value ([1]; 16% N-2-hydroxyethyl urea, 1.0% metronidazole in water, 24 h room temperature then 7 days at about 4 °C) was “Clear”.

With `NC(N)=O` [urea] the “Concentration required to obtain a stable aqueous solution of 1.0% metronidazole” value [1] was “about 10%”, the “Concentration of urea needed to obtain a stable aqueous solution of 1.0% metronidazole” value ([1]; concentration of N-2-hydroxyethyl urea is 1.0%) was no less than 8.0% and the “N-2-hydroxyethyl urea functionally equivalent to 1% urea in inducing the solubility enhancing effect” value ([1]; from Examples 2 and 3) was “about 1.6%”. For the same compound, the Water solubility limit [2] was “about 50 % by weight”.

In the case of `NC(=O)NCCO` [N-2-hydroxyethyl urea], the “Concentration required to obtain a stable aqueous solution of 1.0% metronidazole” value [1] is reported as “about 16%” and the “Concentration of N-2-hydroxyethyl urea needed to obtain a stable aqueous solution of 1.0% metronidazole” value ([1]; concentration of urea is 1.0%) is reported as no less than 9.0%.
